{"source": "patent US12060387B2", "about": "“Polypeptide-based shuttle agents for improving the transduction efficiency of polypeptide cargos to the cytosol of target eukaryotic cells, uses thereof, methods and kits relating to same” (priority 2015, dated 2024)", "key": {"[1]": {"assay": "Cell toxicity / % cell viability by flow cytometry (cells in total events v. untreated)", "format": "cell-based, Human", "conditions": "human, HeLa cells, HeLa, GFP-NLS 5 μM; for viability at 10 s, 35 µM: shuttle 35 μM; for viability at 10 s, 50 µM: shuttle 50 μM"}, "[2]": {"test_system": "HeLa cells", "assay": "Cell toxicity / % cell viability by flow cytometry (cells in total events v. untreated)", "format": "cell-based, Human", "conditions": "HeLa, Protocol B, GFP-NLS 5 μM, 10 seconds"}, "[3]": {"assay": "Cell toxicity / % cell viability by flow cytometry (cells in total events v. untreated)", "format": "cell-based, human", "conditions": "human, THP-1 cells, Cell viability (%) (±St. Dev.; n = 3), THP-1; for viability at 15 s, 5 µM: shuttle 5 μM, 15 seconds"}, "[4]": {"test_system": "THP-1 cells", "assay": "Cell toxicity / % cell viability by flow cytometry (cells in total events v. untreated)", "format": "cell-based, human", "conditions": "THP-1, daily 150 min exposure with serum, shuttle 0.8 μM, GFP-NLS 1 μM"}, "[5]": {"assay": "Cell viability (%) by flow cytometry", "format": "cell-based", "conditions": "GFP-NLS 5 μM, read-out: Cell viability (%) (±St. Dev.; n = 3); for viability at 15 s, 5 µM: Protocol C, shuttle 5 μM, 15 seconds; for viability at 10 s, 35 µM: Protocol B, shuttle 35 μM, 10 seconds", "description": "(§1) The ability of the shuttle agent His-CM18-PTD4 to deliver GFP-NLS to the nuclei of different adherent and suspension cells using Protocols B (adherent cells) or C (suspension cells) as described in Example 9.1 was examined. The cell lines tested included: HeLa, Balb3T3, HEK 293T, CHO, NIH3T3, Myoblasts, Jurkat, THP-1, CA46, and HT2 cells, which were cultured as described in Example 1. GFP-NLS (5 μM; see Example 5.1) was co-incubated with 35 μM of His-CM18-PTD4 and exposed to adherent cells for 10 seconds (Protocol B), or was co-incubated with 5 μM of His-CM18-PTD4 and exposed to suspension cells for 15 seconds (Protocol C). […] “Pos cells (%)” is the mean percentages of all cells that emanate a GFP signal."}, "[6]": {"assay": "Cell viability (%) by flow cytometry", "format": "cell-based, Chinese hamster", "conditions": "CHO cells, Protocol B, shuttle 35 μM, GFP-NLS 5 μM, 10 seconds, read-out: Cell viability (%) (±St. Dev.; n = 3)", "description": "as §1"}, "[7]": {"conditions": "Cell viability (%) (±St. Dev.; n = 3), FIG. 22B, Protocol B, 10 seconds, read-out: Cell viability (%) (±St. Dev.; n = 3), FIG. 22B"}}, "note": "Read-outs that look alike come from different tables or passages of the source. Where no end group is shown, it is not given here.", "data": [{"sequence": "HHHHHHKWKLFKKIGAVLKVLTTGYARAAARQARA [His-CM18-PTD4]", "values": [{"measurement": "viability at 1 h, 10 µM", "setting": "[1]; Cell viability (%) (± St. Dev.; n = 3), Protocol A, shuttle 10 μM, 1 hour", "value": "96.4 ± 2.7", "unit": "%"}, {"measurement": "viability at 10 s, 35 µM", "setting": "[1]; Cell viability (%) (± St. Dev.; n = 3), Protocol B, 10 seconds, read-out: Cell viability (%) (± St. Dev.; n = 3)", "value": "94.6 ± 0.4", "unit": "%"}, {"measurement": "viability at 10 s, 10 µM", "setting": "[1]; Cell viability (%) (±St. Dev.; n = 3), FIG. 22B, Protocol B, shuttle 10 μM, 10 seconds", "value": "96.3 ± 2.3", "unit": "%"}, {"measurement": "viability at 10 s, 25 µM", "setting": "[1]; Cell viability (%) (±St. Dev.; n = 3), FIG. 22B, Protocol B, shuttle 25 μM, 10 seconds", "value": "95.3 ± 3.7", "unit": "%"}, {"measurement": "viability at 10 s, 35 µM", "setting": "[1]; [7]", "value": "79.6 ± 5.9", "unit": "%"}, {"measurement": "viability at 10 s, 50 µM", "setting": "[1]; [7]", "value": "69.2 ± 2.7", "unit": "%"}, {"measurement": "viability at 10 s, 50 µM", "setting": "[1]; Cell viability (%) (±St. Dev.; n = 3), FIG. 29A, Protocol B, 10 seconds, read-out: Cell viability (%) (±St. Dev.; n = 3), FIG. 29A", "value": "92 ± 3.6", "unit": "%"}, {"measurement": "viability at 1 min, 10 µM", "setting": "[1]; Cell viability (%) (±St. Dev.; n = 3), FIG. 29B, Protocol B, shuttle 10 μM, incubation 1 min., read-out: Cell viability (%) (±St. Dev.; n = 3), FIG. 29B", "value": "97.6 ± 2.7", "unit": "%"}, {"measurement": "viability at 2 min, 10 µM", "setting": "[1]; Cell viability (%) (±St. Dev.; n = 3), FIG. 29B, Protocol B, shuttle 10 μM, incubation 2 min., read-out: Cell viability (%) (±St. Dev.; n = 3), FIG. 29B", "value": "80.9 ± 3.2", "unit": "%"}, {"measurement": "viability at 5 min, 10 µM", "setting": "[1]; Cell viability (%) (±St. Dev.; n = 3), FIG. 29B, Protocol B, shuttle 10 μM, incubation 5 min., read-out: Cell viability (%) (±St. Dev.; n = 3), FIG. 29B", "value": "66.2 ± 4.4", "unit": "%"}, {"measurement": "viability at 1 min, 20 µM", "setting": "[1]; Cell viability (%) (±St. Dev.; n = 3), FIG. 29I, Protocol B, shuttle 20 μM, 1 minute, read-out: Cell viability (%) (±St. Dev.; n = 3), FIG. 29I", "value": "81.6 ± 4.5", "unit": "%"}, {"measurement": "Cell viability (%) (±St. Dev.; n = 3)", "setting": "[2]; shuttle 35 μM", "value": "94.6 ± 0.4", "unit": "%"}, {"measurement": "Cell viability (%) (±St. Dev.; n = 3), FIG. 29E", "setting": "[2]; shuttle 50 μM", "value": "92 ± 3.6", "unit": "%"}, {"measurement": "viability at 1 h, 1 µM", "setting": "[3]; FIG. 31, Protocol A, shuttle 1 μM, GFP-NLS 5 μM, 1 hour", "value": "96.9 ± 3.6", "unit": "%"}, {"measurement": "viability at 0.5 µM", "setting": "[3]; FIG. 31, Protocol C, shuttle 0.5 μM, GFP-NLS 5 μM", "value": "82.1 ± 2.7", "unit": "%"}, {"measurement": "viability at 15 s, 5 µM", "setting": "[3]; FIG. 31, Protocol C, GFP-NLS 5 μM, read-out: Cell viability (%) (±St. Dev.; n = 3), FIG. 31", "value": "64 ± 4.1", "unit": "%"}, {"measurement": "viability at 15 s, 1 µM", "setting": "[3]; Protocol C, shuttle 1 μM, GFP-NLS 5 μM, incubation time 15 sec, read-out: Cell viability (%) (±St. Dev.; n = 3)", "value": "90 ± 3", "unit": "%"}, {"measurement": "viability at 0.5 min, 1 µM", "setting": "[3]; Protocol C, shuttle 1 μM, GFP-NLS 5 μM, incubation time 30 sec, read-out: Cell viability (%) (±St. Dev.; n = 3)", "value": "89 ± 1.1", "unit": "%"}, {"measurement": "viability at 1 min, 1 µM", "setting": "[3]; Protocol C, shuttle 1 μM, GFP-NLS 5 μM, incubation time 60 sec, read-out: Cell viability (%) (±St. Dev.; n = 3)", "value": "85.3 ± 3.6", "unit": "%"}, {"measurement": "viability at 2 min, 1 µM", "setting": "[3]; Protocol C, shuttle 1 μM, GFP-NLS 5 μM, incubation time 120 sec, read-out: Cell viability (%) (±St. Dev.; n = 3)", "value": "74.3 ± 3.2", "unit": "%"}, {"measurement": "viability at 15 s, 5 µM", "setting": "[3]; Protocol C, GFP-NLS 5 μM, read-out: Cell viability (%) (±St. Dev.; n = 3)", "value": "64.1 ± 4.5", "unit": "%"}, {"measurement": "viability at 24 h, 0.5 µM", "setting": "[3]; daily 150 min exposure with serum, shuttle 0.5 μM, GFP-NLS 5 μM, exposure 1 day", "value": "98.2 ± 2.4", "unit": "%"}, {"measurement": "viability at 72 h, 0.5 µM", "setting": "[3]; daily 150 min exposure with serum, shuttle 0.5 μM, GFP-NLS 5 μM, exposure 3 days", "value": "84.3 ± 3.8", "unit": "%"}, {"measurement": "viability at 24 h, 0.8 µM", "setting": "[3]; daily 150 min exposure with serum, shuttle 0.8 μM, GFP-NLS 2.5 μM, exposure 1 day, read-out: Cell viability (%) (±St. Dev.; n = 3)", "value": "92.3 ± 1.9", "unit": "%"}, {"measurement": "viability at 72 h, 0.8 µM", "setting": "[3]; daily 150 min exposure with serum, shuttle 0.8 μM, GFP-NLS 2.5 μM, exposure 3 days, read-out: Cell viability (%) (±St. Dev.; n = 3)", "value": "68.5 ± 2.2", "unit": "%"}, {"measurement": "Cell viability (%) (±St. Dev.; n = 3)", "setting": "[4]; exposure 1 day", "value": "98.4 ± 6.4", "unit": "%"}, {"measurement": "Cell viability (%) (±St. Dev.; n = 3)", "setting": "[4]; exposure 3 days", "value": "80.6 ± 4.6", "unit": "%"}, {"measurement": "viability at 15 s, 5 µM", "setting": "[5]; human, CA46 cells", "value": "71.6 ± 1", "unit": "%"}, {"measurement": "viability at 10 s, 35 µM", "setting": "[5]; human, HEK 293T cells", "value": "95.3 ± 1.2", "unit": "%"}, {"measurement": "viability at 15 s, 5 µM", "setting": "[5]; human, Jurkat cells", "value": "73.6 ± 0.7", "unit": "%"}, {"measurement": "viability at 10 s, 35 µM", "setting": "[5]; human, Myoblasts", "value": "23.5 ± 1.1", "unit": "%"}, {"measurement": "viability at 10 s, 35 µM", "setting": "[5]; mouse, Balb3T3 cells", "value": "98.4 ± 0.6", "unit": "%"}, {"measurement": "viability at 15 s, 5 µM", "setting": "[5]; mouse, HT2 cells", "value": "90.6 ± 1.5", "unit": "%"}, {"measurement": "viability at 10 s, 35 µM", "setting": "[5]; mouse, NIH3T3 cells", "value": "3.3 ± 5.4", "unit": "%"}, {"measurement": "viability at 10 s, 35 µM", "setting": "[6]", "value": "92.8 ± 0.1", "unit": "%"}]}]}
